Results reported in publication PMC5478271, “Chemical structure-guided design of dynapyrazoles, cell-permeable dynein inhibitors with a unique mode of action” (eLife, 2017).

Target: T1, human cytoplasmic dynein 2 (GFP-dynein 2, amino acids 1091–4307) (Homo sapiens, UniProt Q8NCM8)
T1 construct: (AA 1091–4307, uniprot: Q8NCM8); protein A tag (followed by TEV-cleavable linker) (N, cleaved yes); made in house; host or cells: Sf9 insect cells (baculovirus)
Assay: Microtubule gliding (motility) assay with GFP-dynein 2
Type: biochemical
Settings: for Velocity of dynein-2-driven microtubule gliding: 20 µM compound, solvent control 128 ± 14 nm/s, mean ± S.D.; for Velocity of dynein-2-driven microtubule gliding / IC50: 1 mM MgATP, 0.05 mg/mL casein, 2% DMSO; for IC50: read-out: IC50, inhibition of GFP-dynein-2-driven motility
Description: We purified an N-terminally GFP-tagged motor-domain construct of dynein 2 using an insect cell expression system ([Schmidt et al., 2015]). The GFP tag in this construct (GFP-dynein 2, amino acids 1091–4307) allowed the motor protein to be immobilized on passivated glass coverslips used in microtubule gliding assays. GFP-dynein 2 was obtained as a mono-disperse peak by gel filtration (Figure 2D and E). In the presence of ATP (1 mM), this protein moved microtubules with a velocity of 128 ± 14 nm/s (mean ± SD, Figure 2G and I).
Reaction setup: A coverslip-based motility assay was adapted from similar assays reported previously ([Firestone et al., 2012]; [Schmidt et al., 2015]). A flow chamber assembled on a pre-cleaned microscope coverslide (3–5 µL chamber volume) was hydrated with buffer A (25 mM PIPES, 30 mM KCl, 5 mM MgCl2, 1 mM EGTA, 0.01% Triton X-100, 1 mM DTT, 20 µM taxol, pH 7.0 with KOH). Anti-GFP antibody (0.4 mg/mL, affinity purified rabbit antibody) was flowed into the chamber and allowed to adhere non-specifically to the glass for 20 s. The surface was blocked using 0.5 mg/mL α-casein in buffer A. Excess protein was then washed away with buffer A. GFP-dynein motor domain was diluted in buffer A supplemented with 1 mM DTT and 0.1 mM ATP (2 mM DTT final; GFP-dynein 2 diluted to: 180 nM; GFP-dynein 1 diluted to: 60 nM), flowed into the chamber and allowed to bind for 20 s. Excess protein was washed away with buffer A. Reaction mix (25 mM PIPES, 90 mM KCl, 6 mM MgCl2, 1 mM EGTA, 0.01% Triton X-100, 3 mM DTT, 20 µM taxol, 1 mM ATP, 1x oxygen scavenging system components [4.5 mg/mL glucose, 35 µg/mL catalase, 200 µg/mL glucose oxidase], 2% final DMSO [v/v] with compounds at appropriate concentrations, 0.05 mg/mL α-casein, microtubules [rhodamine labeled, purified from bovine brain, GMP-CPP and Taxol-stabilized], pH 7.0 with KOH) was flowed into the chamber using ~4 chamber volumes. For experiments shown in Figure 4—figure supplement 1, α-casein concentration in reaction mix was 0.5 mg/mL and all other parameters were held constant.
For reversibility experiments, motility in the presence of 5 µM 8 was observed as above, and upon completion of imaging, the chamber, fresh buffer A supplemented with 1 mM ATP was flowed into the chamber and incubated for 1 min; this wash and incubation cycle was repeated twice. Reaction mix containing DMSO (no compound) was flowed into the chamber using ~4 chamber volumes. The chamber was sealed with valap and returned to the microscope.
Microscopy conditions: Following addition of reaction mix, microtubules were allowed to bind for 5 min before imaging. For reversibility experiments, microtubules were allowed to bind for 10 min before imaging. Videos were taken on a Zeiss Axiovert 200M wide-field microscope equipped with a Zeiss 100x/1.45 NA α-Plan-Fluar objective. Data were captured with an EM-CCD camera (iXon DU-897, Andor Technology) with a 0.2 s exposure time and frame rate of 0.25–0.5/second. Four 10–20 s videos were captured per experimental condition. Velocities were measured using the kymograph tool in FIJI ([Schindelin et al., 2012]). Data analysis is discussed below under ‘General data analysis procedures.’
Microtubule velocity measurements: the tracks of microtubules were traced and converted to kymographs (x axis-displacement, y axis-time) using the kymograph function of FIJI (RRID: SCR_002285). The angle formed between an edge of a microtubule and the horizontal was measured. This angle, θ, was converted into velocity using the following relationship: velocity = 1/|tangent(θ)| * (unit pixel distance)/(time interval between frames).
The calibrated pixel distance was 0.152 µm and the time interval between frames was either 2 or 4 s. The velocities of at least seven microtubules were measured per field of view, if sufficient tracks could be found. In cases where fewer than seven microtubules were found in a field of view, velocities of all microtubules on the coverslip were measured. […]

T1 sequence (Q8NCM8 1091-4307): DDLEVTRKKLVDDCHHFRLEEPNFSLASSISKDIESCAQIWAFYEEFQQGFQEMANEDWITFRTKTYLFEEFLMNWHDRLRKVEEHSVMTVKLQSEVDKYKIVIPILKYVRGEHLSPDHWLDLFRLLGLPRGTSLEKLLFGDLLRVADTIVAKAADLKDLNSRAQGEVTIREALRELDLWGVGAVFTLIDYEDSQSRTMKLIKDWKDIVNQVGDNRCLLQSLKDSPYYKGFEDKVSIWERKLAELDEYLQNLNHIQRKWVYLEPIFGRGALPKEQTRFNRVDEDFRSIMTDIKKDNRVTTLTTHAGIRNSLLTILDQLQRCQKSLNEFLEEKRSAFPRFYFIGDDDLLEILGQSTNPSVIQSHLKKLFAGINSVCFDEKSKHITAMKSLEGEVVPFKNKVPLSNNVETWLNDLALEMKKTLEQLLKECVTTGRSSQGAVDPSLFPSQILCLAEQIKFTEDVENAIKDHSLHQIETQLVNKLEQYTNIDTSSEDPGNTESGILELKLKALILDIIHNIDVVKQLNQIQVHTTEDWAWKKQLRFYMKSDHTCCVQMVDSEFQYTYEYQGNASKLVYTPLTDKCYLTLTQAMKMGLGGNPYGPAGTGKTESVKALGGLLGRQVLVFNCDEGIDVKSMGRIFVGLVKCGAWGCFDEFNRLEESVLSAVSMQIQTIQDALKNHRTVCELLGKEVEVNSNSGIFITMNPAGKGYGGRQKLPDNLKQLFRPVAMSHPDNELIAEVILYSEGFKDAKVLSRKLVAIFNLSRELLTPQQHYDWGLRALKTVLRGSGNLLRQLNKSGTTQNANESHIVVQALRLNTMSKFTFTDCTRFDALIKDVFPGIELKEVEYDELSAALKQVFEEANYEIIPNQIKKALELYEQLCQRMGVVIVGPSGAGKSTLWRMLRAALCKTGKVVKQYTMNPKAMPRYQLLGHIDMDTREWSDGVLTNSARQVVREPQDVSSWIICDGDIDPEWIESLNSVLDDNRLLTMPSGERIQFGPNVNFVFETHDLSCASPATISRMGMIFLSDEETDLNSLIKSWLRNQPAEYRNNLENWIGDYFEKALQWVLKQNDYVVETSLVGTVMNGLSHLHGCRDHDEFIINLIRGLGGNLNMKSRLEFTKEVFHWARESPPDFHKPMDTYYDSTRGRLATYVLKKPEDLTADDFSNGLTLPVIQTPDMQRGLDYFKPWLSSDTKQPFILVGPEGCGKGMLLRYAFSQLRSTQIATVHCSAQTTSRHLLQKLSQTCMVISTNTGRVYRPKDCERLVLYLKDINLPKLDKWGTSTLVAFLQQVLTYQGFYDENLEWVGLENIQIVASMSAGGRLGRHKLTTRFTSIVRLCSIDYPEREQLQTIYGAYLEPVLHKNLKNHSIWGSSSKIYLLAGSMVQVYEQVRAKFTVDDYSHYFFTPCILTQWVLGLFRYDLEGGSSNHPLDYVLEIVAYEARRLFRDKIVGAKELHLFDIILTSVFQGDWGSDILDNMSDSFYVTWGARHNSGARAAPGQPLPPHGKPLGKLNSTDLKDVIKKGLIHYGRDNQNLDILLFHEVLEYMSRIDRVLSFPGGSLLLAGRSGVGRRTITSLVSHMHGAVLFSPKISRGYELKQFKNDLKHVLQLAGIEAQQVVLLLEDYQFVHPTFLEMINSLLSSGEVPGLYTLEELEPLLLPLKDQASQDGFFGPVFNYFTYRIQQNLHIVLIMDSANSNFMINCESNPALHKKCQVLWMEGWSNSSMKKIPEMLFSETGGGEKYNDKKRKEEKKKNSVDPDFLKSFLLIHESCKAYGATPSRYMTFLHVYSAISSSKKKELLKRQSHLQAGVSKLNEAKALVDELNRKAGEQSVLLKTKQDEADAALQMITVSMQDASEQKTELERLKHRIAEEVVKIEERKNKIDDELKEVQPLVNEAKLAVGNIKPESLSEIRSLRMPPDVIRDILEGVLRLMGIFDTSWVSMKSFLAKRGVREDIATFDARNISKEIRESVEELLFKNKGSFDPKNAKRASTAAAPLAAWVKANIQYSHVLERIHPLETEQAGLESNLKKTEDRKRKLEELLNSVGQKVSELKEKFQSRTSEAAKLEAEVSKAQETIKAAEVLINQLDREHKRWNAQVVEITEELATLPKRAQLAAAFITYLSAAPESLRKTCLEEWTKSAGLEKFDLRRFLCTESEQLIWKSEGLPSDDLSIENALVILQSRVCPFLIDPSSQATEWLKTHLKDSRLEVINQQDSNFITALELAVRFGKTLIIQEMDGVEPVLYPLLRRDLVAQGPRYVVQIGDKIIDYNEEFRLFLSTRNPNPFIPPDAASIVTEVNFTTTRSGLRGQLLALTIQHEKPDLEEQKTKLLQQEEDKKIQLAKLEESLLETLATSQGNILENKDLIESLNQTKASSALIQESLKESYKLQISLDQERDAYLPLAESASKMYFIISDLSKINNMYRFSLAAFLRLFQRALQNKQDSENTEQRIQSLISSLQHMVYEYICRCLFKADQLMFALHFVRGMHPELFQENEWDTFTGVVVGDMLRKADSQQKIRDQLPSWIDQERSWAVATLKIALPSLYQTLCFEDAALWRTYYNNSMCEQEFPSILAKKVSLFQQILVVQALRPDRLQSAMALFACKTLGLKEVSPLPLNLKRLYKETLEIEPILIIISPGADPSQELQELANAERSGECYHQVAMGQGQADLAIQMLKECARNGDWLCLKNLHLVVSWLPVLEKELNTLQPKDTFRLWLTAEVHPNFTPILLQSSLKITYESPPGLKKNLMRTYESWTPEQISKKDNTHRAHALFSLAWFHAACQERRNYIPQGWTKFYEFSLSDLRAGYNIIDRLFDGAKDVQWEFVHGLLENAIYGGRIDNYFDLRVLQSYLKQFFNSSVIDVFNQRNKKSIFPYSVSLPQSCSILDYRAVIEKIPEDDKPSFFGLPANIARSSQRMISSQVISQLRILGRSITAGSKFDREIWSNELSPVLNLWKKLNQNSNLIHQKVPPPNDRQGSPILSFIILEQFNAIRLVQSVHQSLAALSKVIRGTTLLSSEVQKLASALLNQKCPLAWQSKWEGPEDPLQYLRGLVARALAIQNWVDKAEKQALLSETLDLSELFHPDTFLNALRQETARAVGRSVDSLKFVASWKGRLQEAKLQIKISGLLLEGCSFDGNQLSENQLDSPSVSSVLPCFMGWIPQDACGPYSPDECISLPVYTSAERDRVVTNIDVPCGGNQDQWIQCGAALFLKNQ

| Structure (SMILES) | Velocity of dynein-2-driven microtubule gliding | IC50 | Improvement in potency of dynein 2 inhibition by cyclization (compound 6 versus compound 9) (microtubule gliding assay) |
| --- | --- | --- | --- |
| N#Cc1c(-c2ccc(Cl)cc2Cl)cn2c1[nH]c(=O)c1ccccc12 [Compound 2, 2-(2,4-dichlorophenyl)-5-oxo-4H-pyrrolo[1,2-a]quinazoline-3-carbonitrile] | 126 ± 17 nm/s | – | – |
| O=c1[nH]c2cc(-c3ccc(Cl)cc3Cl)nn2c2ccccc12 [Compound 3, 2-(2,4-dichlorophenyl)-4H-pyrazolo[1,5-a]quinazolin-5-one] | comparable to that observed in the presence of ciliobrevin D | – | – |
| N#Cc1c(-c2ccc(Cl)cc2Cl)nn2c1[nH]c(=O)c1ccccc12 [Compound 4, 2-(2,4-dichlorophenyl)-5-oxo-4H-pyrazolo[1,5-a]quinazoline-3-carbonitrile] | comparable to that observed in the presence of ciliobrevin D | – | – |
| N#Cc1c(C2(c3ccc(Cl)cc3)CC2)nn2c1[nH]c(=O)c1ccccc12 [Compound 5, 2-[1-(4-chlorophenyl)cyclopropyl]-5-oxo-4H-pyrazolo[1,5-a]quinazoline-3-carbonitrile] | 58 ± 14 nm/s | – | – |
| N#Cc1c(C2(c3ccc(Cl)cc3)CC2)nn2c1[nH]c(=O)c1cc(C(F)(F)F)ccc12 [Compound 6, 2-(1-(4-chlorophenyl)cyclopropyl)-5-oxo-7-(trifluoromethyl)-4,5-dihydropyrazolo[1,5-a]quinazoline-3-carbonitrile] | 6 ± 2 nm/s | 2.9 ± 0.6 µM | ~ 6 fold |
| COc1ccc2c(c1)c(=O)[nH]c1c(C#N)c(C3(c4ccc(Cl)cc4)CC3)nn12 [Compound 7, 2-[1-(4-chlorophenyl)cyclopropyl]-7-methoxy-5-oxo-4H-pyrazolo[1,5-a]quinazoline-3-carbonitrile] | 128 ± 21 nm/s | – | – |
| N#C/C(C(=O)c1ccc(Cl)cc1Cl)=C1\NC(=O)c2cc(C(F)(F)F)ccc2N1 [Compound 9, (E)-3-(2,4-dichlorophenyl)-3-oxo-2-(4-oxo-6-(trifluoromethyl)-3,4-dihydroquinazolin-2(1H)-ylidene)propanenitrile] | – | 17.7 µM | – |
